The nature of data set [1]: Rx100 salt screening (solid formation, XRPD wet/dry, filterability, exposure to RH > 90%). The settings on record: for Filterability / Crystallinity / Polymorphic behavior: Rx100 salt formed with the named base; for Crystallinity / Polymorphic behavior: XRPD; for All solvents were evaporated to get a gel: label = base, nature/filterability of the solid; for ON PLATE: stage 2 round 2, Rx100 free acid + 1 eq base (label = base). The method, then: We designed a complex and unconventional screening regime to screen for Rx100 crystalline salts. […] The screening regime is described as follows.
Rx100.FA in the form of a viscous liquid and eighteen counter ions were used as starting materials. These counter ions are listed and numbered in Table 4. The numbers will be used for grouping the resulting solids. The screening was performed in three stages.
Stage one (1) included screening 11 counter ions: sodium hydroxide, ammonium hydroxide, ethylenediamine, diethylamine, tromethamine (Tris), hydroxyethyl morpholine, benzathine, dimethylamino ethanol, L-Arginine, L-Lysine, L-Histidine. […] In stage 1, we performed three rounds of experiment.
In the first round of experiment, four (4) solvent systems, i.e., isopropyl alcohol (IPA), diethyl ether (DEE), IPA:water (a mixture at a volume ratio of 95:5) and tetrahydrofuran (THF), were used. Thus in this first round of screening, 44 individual base-acid reactions were conducted in 44 vials.
First, Rx100.FA and each of the bases were mixed in a vial. […] In each of the 44 vials, 211.1 μL of the prepared liquid, which was equivalent to about 35 mg of Rx100.FA, was first dispensed. Then, one equivalent (molar) of each of the 11 bases was dispensed in its corresponding vial. For example, the base sodium hydroxide was added to vials 1, 12, 23 and 34. Similarly, L-histidine was added to vials 11, 22, 33 and 44. Observations were recorded upon addition of the bases in to Rx100.FA.
Second, the solvent in each mixture was depleted. All vials containing the mixtures of Rx100.FA and each of the bases were left under moderate vacuum and nitrogen bleed at room temperature overnight to evaporate the solvent. The vials were then kept under full vacuum for about an hour to make sure the solvents (ethanol and water) are evaporated. Observations on formation of solid upon evaporation were recorded.
Third, solvents were added in each vial to induce solid formation. In each vial, a stir bar and one of the four selected solvents (each 5 volumes with respect to the Rx100.FA) were added. The vials were then capped. IPA was added to the first set of 11 vials (1-11), DEE added to the second set of 11 vials (12-22), IPA:water added to the third set of 11 vials (23-33), and THF added to the fourth set of 11 vials (34-44). The vials were left at room temperature while stirring for at least 5 hours. Observations were recorded.
The first set of XRPD analyses were recorded as “wet” samples. The solids were dried under vacuum for 1 hour and at room temperature followed by XRPD as “dry” sample. The dry solid was then exposed to relative humidity of more than 90% overnight followed by XRPD analysis. For XRPD naming, a number and a letter were used. The number refers to the counter ion and the letter refers to the chronological discovered XRPD pattern of that particular salt.
In the second round of experiment of stage one, another four (4) solvent systems, i.e., methanol (MeOH), tert-Butyl methyl ether (tBME), ethyl acetate and toluene, were used in the same 44 vials as used in the first round experiment. The solvents in all 44 vials from the first round were evaporated to dryness under vacuum and nitrogen bleed. The 4 new solvents were then added into the vials. Methanol was added to the first set of 11 vials (1-11), tBME added to the second set of 11 vials (12-22), Ethyl acetate added to the third set of 11 vials (23-33), and Toluene added to the fourth set of 11 vials (34-44). The same procedure as in the first round of experiment was followed for these new solvents and samples were taken for XRPD analysis.
In the third round of experiment, effect of base equivalence was assessed. […] After addition of the extra base, the previous solvent was evaporated and new solvents added.

Data set [2] relates to Cultured human peripheral lymphocytes cells. The data set is classed as cell-based. To be noted: for Aberrant Cells Mean % −g: excluding gaps only; for Aberrant Cells Mean % +g: plus cells with gaps only. The procedure:
Cultured human peripheral lymphocytes cells were incubated in vitro with Rx100.Lysine for 3 hours with and without S9 mix and for 24 hours without S9 mix. For Rx100.Lysine, concentrations ranging from 3.39 to 500 μg/mL were examined in both treatment conditions. Adjusting for purity, the concentration ranges were 3.06 to 452 μg/mL. […] This increase was just above the historical vehicle control range (0 to 2.0%) for 3 hour treatment without metabolic activation. Thus the response observed is a weak positive and of questionable biological significance cytotoxicity was present just below the acceptable limit of 50±5% for this assay.
Thus, Rx100.Lysine was considered negative for inducing chromosome aberrations, polyploidy and endoreduplication, in cultured human peripheral blood lymphocytes following a 3 hour treatment with and a 24 treatment without metabolic activation.

Data set [3] is described as follows: Single subcutaneous dose pharmacokinetics in irradiated and unirradiated mice. The settings on record: single SC dose 1 mg/kg. It is filed as in vivo, C57BL/6 mice. The source says:
We performed a randomized, open-label, single-dose, four-arm, subcutaneously-administered, study of the pharmacokinetics of Rx100.Ammonia and Rx100.Lysine in irradiated and unirradiated C57BL/6 mice to evaluate the effect of salt form and irradiation on extravascular pharmacokinetics. The purpose of this study was to evaluate the pharmacokinetic parameters for two salt forms of Rx100 (Lysine and Ammonia) in healthy and PB irradiated (IR) mice when administered as a single dose. Each animal received a 1 mg/kg dose of Rx100.Lysine or Rx100.Ammonia. The animals receiving Rx100.Lysine or Rx100.Ammonia after irradiation were dosed 26±2 hours after irradiation and sampling times are relative to the time of test article dosing.
More specifically, randomized, acclimated, C57BL/6 mice were administered Rx100.Lysine or Rx100.Ammonia (10 mM L-histidine in sterile water for injection, or 1% ethanol, 2% propylene glycol in PBS, respectively) as a single dose as indicated in Table 25.
Blood was collected from 4 male and 4 female mice via cardiac puncture at pre-defined time points relative to test article dosing (0.5, 1, 2, 4, 6, 8, 12, 18, 24, and 48 hours) and collected into micro plasma separator vials (BD Microtainer®) containing lithium heparin. Blood was maintained on ice until centrifugation and subsequent processing. Blood draws were a terminal procedure. Plasma was frozen at −80° C. until submitted for bioanalysis. Sample collection was completed in September 2012. Samples were transferred to Covance in December 2013, and sample analysis was complete in the first quarter of 2014.
A total of 160 male and 160 female C57BL/6 10-12 week old mice were used in this study. Animals were randomized with weight stratification into treatment groups and given a second ear tag. Animals were acclimated for 16-19 days (See below Table 26). Prior to irradiation or dosing (in non-irradiated groups), animals were weighed a second time which was the basis of the animal dose delivered.
TLDs were used for dosimetry and confirmation of the delivered dose. TLDs were analyzed by MD Anderson and have a +/−5% accuracy. A total of 19 dosimeters were used with a mean measured dose of 15.33±0.166 Gy.
Analysis was performed using qualified and validated Phoenix® WinNonlin® Software. The final data provided was imported into Phoenix® WinNonlin®. All data presented in the tables and figures within the results section of this report were generated using the validated Phoenix® WinNonlin® Software.

Where [4] appears, read: 3-hour treatment without metabolic activation, positive control 1.00 μg/mL.
[5] abbreviates: 24-hour treatment without metabolic activation, positive control 0.300 μg/mL.
Where [6] appears, read: + IR (irradiated mice), whole group (not split by gender), 1 mg/kg.
The mark [7] stands for this setting: healthy mice, whole group (not split by gender), 1 mg/kg.
Where [8] appears, read: irradiated mice (15.6 Gy, dosed 26 ± 2 h after), F, 1 mg/kg.
The mark [9] stands for this setting: irradiated mice (15.6 Gy, dosed 26 ± 2 h after), M, 1 mg/kg.
[10] abbreviates: 3-hour treatment with metabolic activation, positive control 25.0 μg/mL.

Read-outs that look alike come from different tables or passages of the source.

Take `NCCCC[C@@H](N)C(=O)O` [D-Lysine]: in data set [1], the Filterability entry is “no”, the Crystallinity entry is given as “yes” and the Polymorphic behavior entry is “Polymorphic on XRPD”. Besides, the “Solid upon evaporation (Y/N)” value in data set [1] (stage 3, 35 mg Rx100 free acid + base (label = base), 1.05 eq, L-lysine 2.00 eq) is on record as “Gel”. The “All solvents were evaporated to get a gel” value in data set [1] (stage 3, 1.05 eq, L-lysine 2.00 eq, solvent MeOH:Water [9:1]) was “Greasy”. Further, the “All solvents were evaporated to get a gel” value in data set [1] (stage 3, 1.05 eq, L-lysine 2.00 eq, solvent MeOH) is reported as “Greasy”.
On to `[K+].[OH-]` [KOH], for which the “ON PLATE” value in data set [1] (Ethyl acetate) is given as “Greasy”; in data set [1] (IPA:water (1:1)), “Pasty”.
As to `CO[C@@]12[C@H](COC(N)=O)C3=C(C(=O)C(C)=C(N)C3=O)N1C[C@@H]1N[C@@H]12` [Mitomycin C], in data set [2] (setting [4]), the “Endoreduplicate Mean %” value was determined as 0.0%, the “Polyploidy Mean %” value was found to be 0.0%, the “Aberrant Cells Mean % −g” value is listed as 57.0% and the “Aberrant Cells Mean % +g” value was determined as 59.0%. Moreover, in data set [2] (setting [5]), the “Endoreduplicate Mean %” value stood at 0.0%, the “Polyploidy Mean %” value is on record as 0.0%, the “Aberrant Cells Mean % −g” value amounted to 58.0% and the “Aberrant Cells Mean % +g” value was 61.0%.
Turning to `[K+]` [Potassium], in data set [1], the Filterability result was “no”, the Crystallinity entry was “yes” and the Polymorphic behavior entry is reported as “Polymorphic on XRPD”.
Regarding `CCCCCCCC/C=C\CCCCCCCCOP(O)(O)=S.NCCN` [Rx100 Ethylenediamine salt], in data set [1], the “Stability at high humidity” value was “stable at high humidity”, the Filterability entry was “filterable”, the Crystallinity result was “showed crystallinity” and the Polymorphic behavior result is given as “Creamy/oily on XRPD”. Besides, in data set [1] (listed as Ethyldiamine), the Crystallinity result is recorded as “yes” and the Filterability result is recorded as “yes”.
In general, AUC refers to the area under the concentration-time curve, a measure of exposure. A higher AUC goes with high exposure. A word on the Tmax: it is the time from dosing to the highest level. One may read the Cmax as the highest concentration seen after dosing. With `CCCCCCCC/C=C\CCCCCCCCOP(O)(O)=S` [Rx100.Ammonia, (Z)—O-octadec-9-en-1-yl O,O-dihydrogen phosphorothioate], the CL in data set [3] (IR females) is 10.5 mL/min/kg; in data set [3] (IR males), 9.68 mL/min/kg; in data set [3] (healthy females), 14.5 mL/min/kg; in data set [3] (healthy males), 11 mL/min/kg. The AUC is 1591 ng·h/mL in data set [3] (IR females, 1 mg/kg); 1721 ng·h/mL in data set [3] (IR males, 1 mg/kg); 1521 ng·h/mL in data set [3] (healthy males, 1 mg/kg). In addition, the “half-life, change after irradiation” value in data set [3] (IR versus healthy mice) is listed as “no change”. In addition, the “exposure (AUC)” value in data set [3] (healthy females, 1 mg/kg) worked out at 1152 ng·h/mL. Besides, the Tmax in data set [3] (healthy mice, 1 mg/kg) is 30 to 60 min; in data set [3] (irradiated (IR) mice, 26±2 hours after 15.6 Gy, 1 mg/kg), 30 to 60 min. The AUCINF_obs came out at 1644.99 ng·h/mL in data set [3] (setting [6]); 1152.19 ng·h/mL in data set [3] (healthy mice, F, 1 mg/kg); 1521.44 ng·h/mL in data set [3] (healthy mice, M, 1 mg/kg); 1342.00 ng·h/mL in data set [3] (setting [7]); 1591.05 ng·h/mL in data set [3] (setting [8]); 1720.87 ng·h/mL in data set [3] (setting [9]). In addition, the CLss_F is 10.132 mL/min/kg in data set [3] (setting [6]); 14.466 mL/min/kg in data set [3] (healthy mice, F, 1 mg/kg); 10.954 mL/min/kg in data set [3] (healthy mice, M, 1 mg/kg); 12.419 mL/min/kg in data set [3] (setting [7]); 10.475 mL/min/kg in data set [3] (setting [8]); 9.685 mL/min/kg in data set [3] (setting [9]). Besides, the Cmax in data set [3] (setting [6]) is 466.71 ng/mL; in data set [3] (setting [7]), 383.75 ng/mL. For the same compound, the HL_Lambda_z was found to be 1.37 h in data set [3] (setting [6]) and 1.78 h in data set [3] (setting [7]). The Vz_F stood at 1.20034 L/kg in data set [3] (setting [6]); 1.72837 L/kg in data set [3] (healthy mice, F, 1 mg/kg); 1.3407 L/kg in data set [3] (healthy mice, M, 1 mg/kg); 1.91818 L/kg in data set [3] (setting [7]); 1.22969 L/kg in data set [3] (setting [8]); 1.27697 L/kg in data set [3] (setting [9]).
As to `CCCCCCCC/C=C\CCCCCCCCOP([O-])(O)=S.[Na+]` [Sodium], in data set [1], the Filterability entry is given as “no”, the Crystallinity entry was “yes” and the Polymorphic behavior result is reported as “Polymorphic on XRPD”.
Take `O=P1(N(CCCl)CCCl)NCCCO1` (stereo not drawn) [cyclophosphamide, reference compound]: in data set [2] (setting [10]), the “Cytotoxicity (% of Control)” value is listed as 12 % of Control, the “Endoreduplicate Mean %” value is 0.0%, the “Polyploidy Mean %” value worked out at 0.0% and the “Aberrant Cells Mean % −g” value is 58.0%. Also, the “Aberrant Cells Mean % +g” value in data set [2] (setting [10]) is on record as 65.0%.

For the origin of these results see patent US20170226139A1, “CRYSTALLINE SALTS OF (Z)-O-OCTADEC-9-EN-1-YL O,O-DIHYDROGEN PHOSPHOROTHIOATE” (priority 2013, published 2017).
